These results are taken from patent US20100056508A1, “AMINE DERIVATIVES AND THEIR USE IN BETA-2-ADRENORECEPTOR MEDIATED DISEASES” (ASTRAZENECA AB, priority 2006, published 2010).

For one test, the target named is T1, Adrenergic β2 (Homo sapiens, UniProt P07550).
T1 construct: Adherent H292 cells were removed from tissue culture flasks; endogenous in cells; host or cells: H292 cells
In words: Adrenergic β2 mediated cAMP production in H292 cells (AlphaScreen cAMP detection). The format is cell-based. The conditions noted are these: for β2 Int Act: Intrinsic Activity as a fraction relative to the maximum activity determined for formoterol; for EC50: cAMP production, 60 minutes at room temperature, 300 μM rolipram, read-out: β2 pEC50 (converted). Set-up: key to β2 Int Act: fraction of formoterol maximum activity (formoterol = 1). The method in brief: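 H292 cells pre-treated 10 min with rolipram (300 μM final), then given agonist for 60 min at room temperature in HBSS/10 mM HEPES pH 7.4, 1.6% DMSO final. Lysate cAMP measured by AlphaScreen against a cAMP standard curve. Four-parameter fit gives pEC50; intrinsic activity relative to formoterol maximum.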
(Cyclic AMP is a second messenger, typically raised through Gs and lowered through Gi signalling.)

Test [1] concerns the target T2, recombinant human adrenergic beta 1 receptors (Homo sapiens, UniProt P08588).
T2 construct: purchased Euroscreen
The test can be described thus: Adrenergic β1 selectivity assay, [125I]-Iodocyanopindolol binding to membranes. The conditions noted are these: inhibition of [125I]-Iodocyanopindolol binding, read-out: β1 bind pIC50 (converted). In outline:
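Displacement of [^125I]-Iodocyanopindolol (0.036 nM final) from human β1 receptor membranes, 2 hours at room temperature, pH 7.4 HEPES/EDTA/NaCl buffer. After filtration, scintillation counting; NSB set with 10 μM propranolol and subtracted. Four-parameter logistic fitting gave pIC50.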

The target in test [2] is T3, recombinant human Dopamine Subtype D2s receptors (Homo sapiens, UniProt P14416).
T3 construct: purchased Perkin Elmer
The test can be described thus: Dopamine D2 selectivity assay, [3H]-spiperone binding to membranes. Conditions: inhibition of [3H]-spiperone binding, read-out: D2 bind pIC50 (converted). The method in brief: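 Human D2s receptor membranes incubated 2 h at room temperature with 0.16 nM [3H]-spiperone and test compound in HEPES buffer pH 7.4 (120 mM NaCl, 0.1% gelatin). Non-specific binding defined with 10 μM haloperidol; filter-bound radioactivity counted, pIC50 from four-parameter logistic fit.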

Where a name gives a salt, the structure may show the parent alone.

T3 sequence (P14416 1-414 isoform P14416-2): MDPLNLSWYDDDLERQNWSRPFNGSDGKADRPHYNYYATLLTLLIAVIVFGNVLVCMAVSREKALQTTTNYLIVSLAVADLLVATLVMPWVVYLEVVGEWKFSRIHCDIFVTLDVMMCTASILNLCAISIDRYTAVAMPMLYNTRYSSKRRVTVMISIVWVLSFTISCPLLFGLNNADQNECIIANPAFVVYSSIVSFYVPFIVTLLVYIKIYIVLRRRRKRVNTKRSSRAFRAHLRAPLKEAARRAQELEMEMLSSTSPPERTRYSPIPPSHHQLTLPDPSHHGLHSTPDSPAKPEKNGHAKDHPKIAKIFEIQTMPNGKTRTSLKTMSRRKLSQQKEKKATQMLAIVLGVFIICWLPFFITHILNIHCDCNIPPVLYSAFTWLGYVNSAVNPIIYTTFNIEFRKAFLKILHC
T2 sequence (P08588 whole entry): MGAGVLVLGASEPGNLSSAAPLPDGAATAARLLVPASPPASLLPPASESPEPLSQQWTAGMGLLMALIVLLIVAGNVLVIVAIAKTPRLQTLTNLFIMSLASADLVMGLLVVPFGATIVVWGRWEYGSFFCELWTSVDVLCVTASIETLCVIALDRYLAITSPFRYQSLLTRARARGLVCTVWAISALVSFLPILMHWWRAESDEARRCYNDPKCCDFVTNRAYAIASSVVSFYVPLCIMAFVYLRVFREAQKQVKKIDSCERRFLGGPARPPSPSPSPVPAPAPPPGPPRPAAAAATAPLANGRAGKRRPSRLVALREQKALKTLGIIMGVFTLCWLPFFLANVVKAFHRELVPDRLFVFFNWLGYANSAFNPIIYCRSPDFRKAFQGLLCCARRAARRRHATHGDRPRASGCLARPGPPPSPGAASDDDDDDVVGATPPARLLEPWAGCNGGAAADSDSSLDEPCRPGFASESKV
T1 sequence (P07550 whole entry): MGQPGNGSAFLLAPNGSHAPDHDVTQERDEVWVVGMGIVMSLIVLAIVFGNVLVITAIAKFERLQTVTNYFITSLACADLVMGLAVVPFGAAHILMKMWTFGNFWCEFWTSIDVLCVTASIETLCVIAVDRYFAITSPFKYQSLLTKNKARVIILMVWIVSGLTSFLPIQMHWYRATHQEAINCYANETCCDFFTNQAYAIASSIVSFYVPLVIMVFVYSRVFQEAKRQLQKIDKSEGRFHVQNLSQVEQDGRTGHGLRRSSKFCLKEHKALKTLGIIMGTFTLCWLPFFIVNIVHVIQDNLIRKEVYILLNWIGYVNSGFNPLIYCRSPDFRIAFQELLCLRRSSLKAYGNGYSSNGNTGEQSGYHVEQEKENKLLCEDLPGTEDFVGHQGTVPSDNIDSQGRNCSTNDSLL

Consider `O=C1COc2c(CCNCCN(C(=O)CCNCCc3cccc(Cl)c3)C3CCCCC3)ccc(O)c2N1` [Example 27, 3-(3-Chlorophenethylamino)-N-cyclohexyl-N-(2-(2-(5-hydroxy-3-oxo-3,4-dihydro-2H-benzo[b][1,4]oxazin-8-yl)ethylamino)ethyl)propanamide bis(trifluoroacetate)], for which the “β2 Int Act” value at Adrenergic β2 amounted to 0.89. Also, the EC50 on Adrenergic β2 was 2 nM. In addition, the IC50 was 3160 nM in test [1] and 251 nM in test [2].
The matching figures for `O=C1COc2c(CCNCCN(C(=O)CCNCCc3ccc(F)c(F)c3)C3CCCCCC3)ccc(O)c2N1` [Example 67, N-Cycloheptyl-3-(3,4-difluorophenethylamino)-N-(2-(2-(5-hydroxy-3-oxo-3,4-dihydro-2H-benzo[b][1,4]oxazin-8-yl)ethylamino)ethyl)propanamide bis(trifluoroacetate)]: 0.87, 3.16 nM, 1000 nM and 100 nM.
The matching figures for `Cc1cc(CCNCCC(=O)N(CCNCCc2ccc(O)c3c2OCC(=O)N3)C2CCCCCC2)ccc1F` [Example 62, N-Cycloheptyl-3-(4-fluoro-3-methylphenethylamino)-N-(2-(2-(5-hydroxy-3-oxo-3,4-dihydro-2H-benzo[b][1,4]oxazin-8-yl)ethylamino)ethyl)propanamide bis(trifluoroacetate)]: 0.86, 3.98 nM, 251 nM and 63.1 nM.
The matching figures for `O=C1COc2c(CCNCCN(C(=O)CCNCCc3cc(F)ccc3F)C3CCCCC3)ccc(O)c2N1` [Example 38, N-Cyclohexyl-3-(2,5-difluorophenethylamino)-N-(2-(2-(5-hydroxy-3-oxo-3,4-dihydro-2H-benzo[b][1,4]oxazin-8-yl)ethylamino)ethyl)propanamide bis(trifluoroacetate)]: 0.98, 1.26 nM, above 5010 nM and 126 nM.
Regarding `O=C1COc2c(CCNCCN(C(=O)CCNCCc3ccccc3)C3CCCCC3)ccc(O)c2N1` [Example 23, N-Cyclohexyl-N-(2-(2-(5-hydroxy-3-oxo-3,4-dihydro-2H-benzo[b][1,4]oxazin-8-yl)ethylamino)ethyl)-3-(phenethylamino)propanamide bis(trifluoroacetate)], at Adrenergic β2, the “β2 Int Act” value is given as 0.79 and the EC50 is 0.631 nM. In test [1], the IC50 was 631 nM. In addition, the IC50 in test [2] is 316 nM.
As for `CC(C)[C@@H](C)N(CCNCCc1ccc(O)c2c1OCC(=O)N2)C(=O)CCNCCc1ccc(Cl)c(Cl)c1` [Example 59, (R)-3-(3,4-Dichlorophenethylamino)-N-(2-(2-(5-hydroxy-3-oxo-3,4-dihydro-2H-benzo[b][1,4]oxazin-8-yl)ethylamino)ethyl)-N-(3-methylbutan-2-yl)propanamide dihydrochloride], at Adrenergic β2, the “β2 Int Act” value is 0.87 and the EC50 was 3.98 nM. Moreover, in test [1], the IC50 is 2000 nM. The IC50 in test [2] is 100 nM.
Consider `O=C(CCNCCc1cc(F)ccc1F)N(CCNCCc1ccc(O)c2[nH]c(=O)ccc12)C1CCCCC1` [Example 17, N-Cyclohexyl-3-(2,5-difluorophenethylamino)-N-(2-(2-(8-hydroxy-2-oxo-1,2-dihydroquinolin-5-yl)ethylamino)ethyl)propanamide bis(trifluoroacetate)], for which, at Adrenergic β2, the “β2 Int Act” value is 0.93 and the EC50 was 3.98 nM. The IC50 in test [1] is 12600 nM. Moreover, the IC50 in test [2] was 1260 nM.
The matching figures for `O=C1COc2c(CCNCCN(C(=O)CCOCCc3ccccc3)C3CCCCC3)ccc(O)c2N1` [Example 70, N-Cyclohexyl-N-(2-(2-(5-hydroxy-3-oxo-3,4-dihydro-2H-benzo[b][1,4]oxazin-8-yl)ethylamino)ethyl)-3-phenethoxypropanamide trifluoroacetate]: 0.97, 3.98 nM, 3980 nM and 1000 nM.
Consider `O=C(CCNCCc1ccc(Cl)cc1)N(CCNCCc1ccc(O)c2[nH]c(=O)ccc12)C1CCCCCC1` [Example 4, 3-(4-Chlorophenethylamino)-N-cycloheptyl-N-(2-(2-(8-hydroxy-2-oxo-1,2-dihydroquinolin-5-yl)ethylamino)ethyl)propanamide bis(trifluoroacetate)], for which, at Adrenergic β2, the “β2 Int Act” value is listed as 0.79 and the EC50 is 20 nM. In test [1], the IC50 was 3160 nM. Moreover, the IC50 in test [2] was 79.4 nM.
The matching figures for `O=C1COc2c(CCNCCN(C(=O)CCNCCc3cccc(Cl)c3F)C3CCCCC3)ccc(O)c2N1` [Example 39, 3-(3-Chloro-2-fluorophenethylamino)-N-cyclohexyl-N-(2-(2-(5-hydroxy-3-oxo-3,4-dihydro-2H-benzo[b][1,4]oxazin-8-yl)ethylamino)ethyl)propanamide bis(trifluoroacetate)]: 0.98, 1.58 nM, 1260 nM and 100 nM.
The matching figures for `O=C1COc2c(CCNCCN(C(=O)CCNCCc3ccc(Cl)c(Cl)c3)C3CCCCCC3)ccc(O)c2N1` [Example 26, N-Cycloheptyl-3-(3,4-dichlorophenethylamino)-N-(2-(2-(5-hydroxy-3-oxo-3,4-dihydro-2H-benzo[b][1,4]oxazin-8-yl)ethylamino)ethyl)propanamide bis(trifluoroacetate)]: 0.74, 2.51 nM, 2000 nM and 31.6 nM.
The matching figures for `O=C(CCNCCc1cc(F)cc(F)c1)N(CCNCCc1ccc(O)c2[nH]c(=O)ccc12)C1CCCCC1` [Example 15, N-Cyclohexyl-3-(3,5-difluorophenethylamino)-N-(2-(2-(8-hydroxy-2-oxo-1,2-dihydroquinolin-5-yl)ethylamino)ethyl)propanamide bis(trifluoroacetate)]: 0.88, 7.94 nM, above 10000 nM and 1260 nM.
Regarding `CCCC[C@@H](C)N(CCNCCc1ccc(O)c2c1OCC(=O)N2)C(=O)CCNCCc1ccc(F)c(Cl)c1` [Example 48, (R)-3-(3-Chloro-4-fluorophenethylamino)-N-(hexan-2-yl)-N-(2-(2-(5-hydroxy-3-oxo-3,4-dihydro-2H-benzo[b][1,4]oxazin-8-yl)ethylamino)ethyl)propanamide bis(trifluoroacetate)], on Adrenergic β2, the “β2 Int Act” value is recorded as 0.91 and the EC50 is 2 nM. Also, the IC50 in test [1] is 794 nM. Also, the IC50 in test [2] was 79.4 nM.
Consider `O=C1COc2c(CCNCCN(C(=O)CCNCCc3ccc(Cl)cc3)C3CCCCC3)ccc(O)c2N1` [Example 32, 3-(4-Chlorophenethylamino)-N-cyclohexyl-N-(2-(2-(5-hydroxy-3-oxo-3,4-dihydro-2H-benzo[b][1,4]oxazin-8-yl)ethylamino)ethyl)propanamide bis(trifluoroacetate)], for which the “β2 Int Act” value on Adrenergic β2 is 1.03. Also, the EC50 at Adrenergic β2 was 3.16 nM. The IC50 in test [1] was 2000 nM; in test [2], 200 nM.
